According to ChEMBL document CHEMBL5715954, “Silencing c-Myc translation as a therapeutic strategy through targeting PI3Kδ and CK1ε in hematological malignancies” (Blood, 2017):

Assays:
Design in all cases: scale not given: the % may be the effect or the level left
[1] = biological target: Serine/threonine-protein kinase PAK 4 (Homo sapiens) (UniProt O96013); experiment: Inhibition of human PAK4 assessed as enzyme activity at 1 uM using RRRLSFAEPG as substrate preincubated for 20 mins followed by [gamma-33P]-ATP addition and measured after 120 mins by radiometric Hot-SpotSM Kinase assay relative to control
Serine/threonine-protein kinase PAK 4 (Homo sapiens), sequence (O96013 whole entry, looked up): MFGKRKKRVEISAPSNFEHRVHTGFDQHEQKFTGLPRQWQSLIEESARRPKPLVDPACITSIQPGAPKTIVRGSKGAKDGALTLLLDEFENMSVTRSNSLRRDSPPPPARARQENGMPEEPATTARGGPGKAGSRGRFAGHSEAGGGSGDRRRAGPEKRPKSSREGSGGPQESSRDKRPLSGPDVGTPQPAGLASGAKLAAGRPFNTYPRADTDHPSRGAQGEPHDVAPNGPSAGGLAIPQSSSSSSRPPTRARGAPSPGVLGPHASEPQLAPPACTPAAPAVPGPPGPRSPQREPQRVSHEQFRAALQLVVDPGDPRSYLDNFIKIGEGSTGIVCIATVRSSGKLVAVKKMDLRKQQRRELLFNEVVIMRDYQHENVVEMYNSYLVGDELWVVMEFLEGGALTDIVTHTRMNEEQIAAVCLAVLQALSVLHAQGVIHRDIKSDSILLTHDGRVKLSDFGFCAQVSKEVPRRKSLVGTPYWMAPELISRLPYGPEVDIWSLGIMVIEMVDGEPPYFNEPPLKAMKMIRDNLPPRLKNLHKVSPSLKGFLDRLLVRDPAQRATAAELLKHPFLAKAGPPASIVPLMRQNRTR

Homo sapiens = organism: Homo sapiens; experiment: Inhibition of human CDK2/cyclin A assessed as enzyme activity at 1 uM using RB Protein as substrate preincubated for 20 mins followed by [gamma-33P]-ATP addition and measured after 120 mins by radiometric Hot-SpotSM Kinase assay relative to control
[2] = biological target: Calcium/calmodulin-dependent protein kinase type 1G (Homo sapiens) (UniProt Q96NX5); experiment: Inhibition of human CAMK1g assessed as enzyme activity at 1 uM using KKALRRQETVDAL as substrate preincubated for 20 mins followed by [gamma-33P]-ATP addition and measured after 120 mins by radiometric Hot-SpotSM Kinase assay relative to control
Calcium/calmodulin-dependent protein kinase type 1G (Homo sapiens), sequence (Q96NX5 whole entry): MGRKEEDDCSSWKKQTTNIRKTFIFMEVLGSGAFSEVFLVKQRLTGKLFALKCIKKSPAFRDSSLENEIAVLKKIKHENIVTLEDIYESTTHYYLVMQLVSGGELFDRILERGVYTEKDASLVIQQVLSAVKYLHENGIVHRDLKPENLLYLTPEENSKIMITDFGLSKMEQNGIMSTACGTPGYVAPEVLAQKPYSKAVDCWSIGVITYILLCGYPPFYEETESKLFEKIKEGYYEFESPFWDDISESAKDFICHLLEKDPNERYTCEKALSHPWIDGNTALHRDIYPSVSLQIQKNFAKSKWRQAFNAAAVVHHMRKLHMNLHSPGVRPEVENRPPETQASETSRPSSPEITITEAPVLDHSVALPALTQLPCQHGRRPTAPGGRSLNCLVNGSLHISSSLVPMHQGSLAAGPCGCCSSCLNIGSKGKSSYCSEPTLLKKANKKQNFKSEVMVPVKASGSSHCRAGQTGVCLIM

[3] = biological target: Dual specificity testis-specific protein kinase 1 (Homo sapiens) (UniProt Q15569); experiment: Inhibition of human TESK1 assessed as enzyme activity at 1 uM using cofilin 2 as substrate preincubated for 20 mins followed by [gamma-33P]-ATP addition and measured after 120 mins by radiometric Hot-SpotSM Kinase assay relative to control
Dual specificity testis-specific protein kinase 1 (Homo sapiens), sequence (Q15569 whole entry, looked up): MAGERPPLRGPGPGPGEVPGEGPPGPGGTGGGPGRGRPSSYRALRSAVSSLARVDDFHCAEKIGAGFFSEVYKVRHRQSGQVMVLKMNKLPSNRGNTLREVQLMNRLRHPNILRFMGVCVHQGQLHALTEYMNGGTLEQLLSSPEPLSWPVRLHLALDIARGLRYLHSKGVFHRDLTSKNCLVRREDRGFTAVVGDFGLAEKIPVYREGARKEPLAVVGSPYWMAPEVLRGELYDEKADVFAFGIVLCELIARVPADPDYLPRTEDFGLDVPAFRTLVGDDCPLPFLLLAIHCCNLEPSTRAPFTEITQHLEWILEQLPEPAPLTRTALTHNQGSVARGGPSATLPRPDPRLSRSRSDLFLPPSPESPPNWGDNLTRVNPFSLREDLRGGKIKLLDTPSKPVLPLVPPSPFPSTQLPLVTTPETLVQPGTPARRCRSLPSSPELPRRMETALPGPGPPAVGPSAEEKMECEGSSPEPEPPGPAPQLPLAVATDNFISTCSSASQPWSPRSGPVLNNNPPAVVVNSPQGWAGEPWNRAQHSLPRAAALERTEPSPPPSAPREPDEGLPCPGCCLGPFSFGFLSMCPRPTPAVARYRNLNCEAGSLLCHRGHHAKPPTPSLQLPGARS

[4] = biological target: Tyrosine-protein kinase Fes/Fps (Homo sapiens) (UniProt P07332); experiment: Inhibition of human FES/FPS assessed as enzyme activity at 1 uM using poly[Glu:Tyr] (4:1) as substrate preincubated for 20 mins followed by [gamma-33P]-ATP addition and measured after 120 mins by radiometric Hot-SpotSM Kinase assay relative to control
Tyrosine-protein kinase Fes/Fps (Homo sapiens), sequence (P07332 whole entry): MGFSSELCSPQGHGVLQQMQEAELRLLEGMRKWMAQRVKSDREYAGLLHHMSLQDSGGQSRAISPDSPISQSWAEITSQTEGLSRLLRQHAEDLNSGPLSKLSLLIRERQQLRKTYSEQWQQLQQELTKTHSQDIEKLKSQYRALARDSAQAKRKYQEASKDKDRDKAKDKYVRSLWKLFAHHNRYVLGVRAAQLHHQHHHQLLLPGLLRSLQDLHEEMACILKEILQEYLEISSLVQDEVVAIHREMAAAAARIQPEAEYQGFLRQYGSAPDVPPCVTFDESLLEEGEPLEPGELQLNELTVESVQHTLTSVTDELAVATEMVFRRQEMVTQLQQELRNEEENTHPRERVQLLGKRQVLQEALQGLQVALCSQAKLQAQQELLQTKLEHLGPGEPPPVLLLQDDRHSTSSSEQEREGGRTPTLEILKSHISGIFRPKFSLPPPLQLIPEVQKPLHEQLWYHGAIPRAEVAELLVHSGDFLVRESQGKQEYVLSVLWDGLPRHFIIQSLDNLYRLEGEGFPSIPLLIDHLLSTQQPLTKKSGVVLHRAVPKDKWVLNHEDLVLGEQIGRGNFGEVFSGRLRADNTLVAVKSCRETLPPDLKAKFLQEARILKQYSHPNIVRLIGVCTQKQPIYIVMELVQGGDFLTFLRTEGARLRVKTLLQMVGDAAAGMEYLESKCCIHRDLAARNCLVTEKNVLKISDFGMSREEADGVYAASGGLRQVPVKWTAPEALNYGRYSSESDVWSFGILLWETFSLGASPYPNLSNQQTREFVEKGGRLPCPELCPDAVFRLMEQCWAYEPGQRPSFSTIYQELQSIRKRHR

[5] = biological target: T1, Beta-adrenergic receptor kinase 1 (Homo sapiens) (UniProt P25098); experiment: Inhibition of human GRK2 assessed as enzyme activity at 1 uM using casein as substrate preincubated for 20 mins followed by [gamma-33P]-ATP addition and measured after 120 mins by radiometric Hot-SpotSM Kinase assay relative to control
T1 sequence (whole entry): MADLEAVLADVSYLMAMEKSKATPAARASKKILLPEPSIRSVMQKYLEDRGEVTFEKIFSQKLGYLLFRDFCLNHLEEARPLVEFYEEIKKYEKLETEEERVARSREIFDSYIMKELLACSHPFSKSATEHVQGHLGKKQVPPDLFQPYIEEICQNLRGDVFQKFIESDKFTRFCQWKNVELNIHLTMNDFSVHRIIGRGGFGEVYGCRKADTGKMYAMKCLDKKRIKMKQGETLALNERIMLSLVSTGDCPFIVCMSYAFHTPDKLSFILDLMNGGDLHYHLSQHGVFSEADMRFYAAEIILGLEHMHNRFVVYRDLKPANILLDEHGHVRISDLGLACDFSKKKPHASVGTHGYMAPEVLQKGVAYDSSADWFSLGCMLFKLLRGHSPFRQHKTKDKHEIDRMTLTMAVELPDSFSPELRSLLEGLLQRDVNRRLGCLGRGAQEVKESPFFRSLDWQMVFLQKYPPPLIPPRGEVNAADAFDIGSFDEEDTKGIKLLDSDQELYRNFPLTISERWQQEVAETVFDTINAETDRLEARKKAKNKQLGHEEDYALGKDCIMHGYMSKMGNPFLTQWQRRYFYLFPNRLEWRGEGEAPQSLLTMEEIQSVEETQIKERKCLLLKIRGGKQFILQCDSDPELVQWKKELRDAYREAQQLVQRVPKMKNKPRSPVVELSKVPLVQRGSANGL

[6] = biological target: Macrophage-stimulating protein receptor (Homo sapiens) (UniProt Q04912); experiment: Inhibition of human RON assessed as enzyme activity at 1 uM using KKSRGDYMTMQIG as substrate preincubated for 20 mins followed by [gamma-33P]-ATP addition and measured after 120 mins by radiometric Hot-SpotSM Kinase assay relative to control
[7] = biological target: Cyclin-dependent kinase 4/cyclin D1 (Homo sapiens) (UniProt P11802+P24385); experiment: Inhibition of human CDK4/cyclin D1 assessed as enzyme activity at 1 uM using RB Protein as substrate preincubated for 20 mins followed by [gamma-33P]-ATP addition and measured after 120 mins by radiometric Hot-SpotSM Kinase assay relative to control; type: protein-complex assay
[8] = biological target: Casein kinase I isoform gamma-3 (Homo sapiens) (UniProt Q9Y6M4); experiment: Inhibition of human CK1g3 assessed as enzyme activity at 1 uM using KRRRAL[pS]VASLPGL as substrate preincubated for 20 mins followed by [gamma-33P]-ATP addition and measured after 120 mins by radiometric Hot-SpotSM Kinase assay relative to control
Casein kinase I isoform gamma-3 (Homo sapiens), sequence (Q9Y6M4 whole entry, looked up, canonical isoform): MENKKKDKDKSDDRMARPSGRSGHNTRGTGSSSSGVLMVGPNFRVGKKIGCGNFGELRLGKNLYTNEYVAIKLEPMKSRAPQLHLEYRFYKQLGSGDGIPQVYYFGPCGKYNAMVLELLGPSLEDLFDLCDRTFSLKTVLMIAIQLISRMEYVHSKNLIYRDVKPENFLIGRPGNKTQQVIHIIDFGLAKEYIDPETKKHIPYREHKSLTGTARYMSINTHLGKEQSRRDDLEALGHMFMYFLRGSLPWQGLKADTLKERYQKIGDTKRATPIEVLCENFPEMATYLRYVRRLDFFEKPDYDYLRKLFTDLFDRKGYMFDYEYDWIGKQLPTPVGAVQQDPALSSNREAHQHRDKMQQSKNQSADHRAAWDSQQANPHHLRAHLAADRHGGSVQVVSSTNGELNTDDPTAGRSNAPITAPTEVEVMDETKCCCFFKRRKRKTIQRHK

[9] = biological target: Serine/threonine-protein kinase pim-2 (Homo sapiens) (UniProt Q9P1W9); experiment: Inhibition of human PIM2 assessed as enzyme activity at 1 uM using RSRHSSYPAGT as substrate preincubated for 20 mins followed by [gamma-33P]-ATP addition and measured after 120 mins by radiometric Hot-SpotSM Kinase assay relative to control
Serine/threonine-protein kinase pim-2 (Homo sapiens), sequence (Q9P1W9 whole entry, looked up): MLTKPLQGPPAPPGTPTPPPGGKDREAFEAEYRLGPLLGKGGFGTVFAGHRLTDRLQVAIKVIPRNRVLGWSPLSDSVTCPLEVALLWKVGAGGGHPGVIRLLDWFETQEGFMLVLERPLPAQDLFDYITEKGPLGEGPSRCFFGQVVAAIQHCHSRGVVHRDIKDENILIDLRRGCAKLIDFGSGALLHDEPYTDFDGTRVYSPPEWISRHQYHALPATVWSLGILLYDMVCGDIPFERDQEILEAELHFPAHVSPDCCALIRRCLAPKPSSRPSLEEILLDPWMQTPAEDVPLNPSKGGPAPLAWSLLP

[10] = biological target: T2, Calcium/calmodulin-dependent protein kinase type IV (Homo sapiens) (UniProt Q16566); experiment: Inhibition of human CAMK4 assessed as enzyme activity at 1 uM using KKLNRTLSFAEPG as substrate preincubated for 20 mins followed by [gamma-33P]-ATP addition and measured after 120 mins by radiometric Hot-SpotSM Kinase assay relative to control
T2 sequence (whole entry): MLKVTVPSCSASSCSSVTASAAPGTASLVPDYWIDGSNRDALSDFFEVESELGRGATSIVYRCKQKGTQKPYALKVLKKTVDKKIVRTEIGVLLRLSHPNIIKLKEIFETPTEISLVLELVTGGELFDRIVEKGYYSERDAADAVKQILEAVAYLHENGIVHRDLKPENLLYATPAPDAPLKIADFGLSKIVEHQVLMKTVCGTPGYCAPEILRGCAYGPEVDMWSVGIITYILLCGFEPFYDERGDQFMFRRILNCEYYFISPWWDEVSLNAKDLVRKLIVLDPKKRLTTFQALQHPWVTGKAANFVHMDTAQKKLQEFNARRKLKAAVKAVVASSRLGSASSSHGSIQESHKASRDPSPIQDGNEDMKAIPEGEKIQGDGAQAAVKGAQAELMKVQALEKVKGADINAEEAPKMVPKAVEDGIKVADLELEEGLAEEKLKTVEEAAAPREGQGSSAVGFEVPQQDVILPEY

[11] = biological target: Ribosomal protein S6 kinase beta-2 (Homo sapiens) (UniProt Q9UBS0); experiment: Inhibition of human p70S6Kb assessed as enzyme activity at 1 uM using KKRNRTLTK as substrate preincubated for 20 mins followed by [gamma-33P]-ATP addition and measured after 120 mins by radiometric Hot-SpotSM Kinase assay relative to control
Ribosomal protein S6 kinase beta-2 (Homo sapiens), sequence (Q9UBS0 whole entry): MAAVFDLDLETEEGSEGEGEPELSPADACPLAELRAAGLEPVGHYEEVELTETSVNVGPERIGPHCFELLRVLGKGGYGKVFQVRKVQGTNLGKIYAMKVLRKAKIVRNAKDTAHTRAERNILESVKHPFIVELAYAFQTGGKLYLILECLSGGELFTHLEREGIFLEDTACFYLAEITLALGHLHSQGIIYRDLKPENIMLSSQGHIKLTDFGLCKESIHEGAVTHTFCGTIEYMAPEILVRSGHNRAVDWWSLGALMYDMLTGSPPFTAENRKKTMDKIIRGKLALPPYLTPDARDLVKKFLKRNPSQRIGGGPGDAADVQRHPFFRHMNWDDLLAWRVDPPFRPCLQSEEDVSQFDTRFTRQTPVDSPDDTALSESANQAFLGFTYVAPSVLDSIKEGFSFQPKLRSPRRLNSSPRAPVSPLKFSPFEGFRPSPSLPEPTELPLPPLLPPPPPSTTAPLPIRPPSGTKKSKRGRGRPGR

[12] = biological target: Serine/threonine-protein kinase VRK2 (Homo sapiens) (UniProt Q86Y07); experiment: Inhibition of human VRK2 assessed as enzyme activity at 1 uM using casein as substrate preincubated for 20 mins followed by [gamma-33P]-ATP addition and measured after 120 mins by radiometric Hot-SpotSM Kinase assay relative to control
Serine/threonine-protein kinase VRK2 (Homo sapiens), sequence (Q86Y07 whole entry): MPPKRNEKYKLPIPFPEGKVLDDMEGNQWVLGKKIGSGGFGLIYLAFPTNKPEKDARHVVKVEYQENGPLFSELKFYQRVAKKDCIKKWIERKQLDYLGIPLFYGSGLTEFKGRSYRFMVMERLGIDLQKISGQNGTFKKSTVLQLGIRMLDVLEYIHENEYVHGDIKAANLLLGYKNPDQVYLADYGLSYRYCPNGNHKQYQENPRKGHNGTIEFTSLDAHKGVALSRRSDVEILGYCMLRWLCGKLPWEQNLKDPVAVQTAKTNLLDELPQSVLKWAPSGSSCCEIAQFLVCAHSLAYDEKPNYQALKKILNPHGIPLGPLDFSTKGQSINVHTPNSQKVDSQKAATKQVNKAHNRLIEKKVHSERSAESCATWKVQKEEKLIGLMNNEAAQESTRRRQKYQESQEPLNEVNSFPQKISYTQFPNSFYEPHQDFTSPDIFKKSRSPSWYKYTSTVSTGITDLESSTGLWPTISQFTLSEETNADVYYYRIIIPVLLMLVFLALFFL

| SMILES | Activity [1] | Activity (Homo sapiens) | Activity [2] | Activity [3] | Activity [4] | Activity [5] | Activity [6] | Activity [7] | Activity [8] | Activity [9] | Activity [10] | Activity [11] | Activity [12] |
| --- | --- | --- | --- | --- | --- | --- | --- | --- | --- | --- | --- | --- | --- |
| CC[C@H](Nc1ncnc2[nH]cnc12)c1nc2cccc(F)c2c(=O)n1-c1ccccc1 | 95.9% | 100% | 102% | 98.7% | 91.5% | 93.9% | 108% | 108% | 93.1% | 100% | 82.5% | 104% | 98.3% |
| C[C@H](Nc1ncnc2nc[nH]c12)c1cc2cccc(Cl)c2c(=O)n1-c1ccccc1 | 107% | 101% | 99.1% | 102% | 95.6% | 94.2% | 103% | 110% | 92.9% | 98.1% | 80.7% | 96.8% | 88.3% |
| CC(C)Oc1ccc(-c2nn([C@@H](C)c3oc4ccc(F)cc4c(=O)c3-c3cccc(F)c3)c3ncnc(N)c23)cc1F [UMBRALISIB] | 99.1% | 104% | 98.9% | 98% | 97.5% | 94.5% | 104% | 104% | 95.4% | 101% | 75.4% | 105% | 87% |
